Laboratory results: patent US6531610B1 (Abbott Laboratories, priority 1989, dated 2003)
Counter-ions that a name gives are not always drawn. Like-named read-outs stand apart in the source and are kept apart here.

What was measured:
HIV-1 protease = HIV-1 protease (Human immunodeficiency virus type 1 group M subtype B, UniProt P04585); assay: Fluorogenic assay for screening inhibitors of HIV protease; format: biochemical; conditions: Inhibitor Concentration 0.5 nanomolar, fluorogenic substrate, pH 4.5, read-out: Percent Inhibition
Method: The inhibitory potency of the compounds of the invention can be determined by the following method.
A compound of the invention is dissolved in DMSO and a small aliquot further diluted with DMSO to 100 times the final concentration desired for testing. The reaction is carried out in a 6×50 mm tube in a total volume of 300 microliters. The final concentrations of the components in the reaction buffer are: 125 mM sodium acetate, 1 M sodium chloride, 5 mM dithiothreitol, 0.5 mg/ml bovine serum albumin, 1.3 μM fluorogenic substrate, 2% (v/v) dimethylsulfoxide, pH 4.5. After addition of inhibitor, the reaction mixture is placed in the fluorometer cell holder and incubated at […] for several minutes. The reaction is initiated by the addition of a small aliquot of cold HIV protease. The fluorescence intensity (excitation 340 nm, emission 490 nm) is recorded as a function of time. The reaction rate is determined for the first six to eight minutes. The observed rate is directly proportional to the moles of substrate cleaved per unit time. The percent inhibition is 100×(1-(rate in presence of inhibitor)/(rate in absence of inhibitor)).
Fluorogenic substrate: Dabcyl-[…]EDANS wherein DABCYL=4-(4-dimethylamino-phenyl)azobenzoic acid and EDANS=5-((2-aminoethyl)amino)-naphthalene-1-sulfonic acid.

HIV-13B in MT4 cells = assay: Antiviral activity: inhibition of the cytopathic effect of HIV in MT4 cells; format: cell-based, HIV-1
in vitro = format: cell-based; conditions: human
Text: (§1) The anti-HIV activity of the compounds of the invention can be determined in MT4 cells according to the procedure of Kempf, et. al. (Antimicrob. Agents Chemother. 1991, 35, 2209).

MT4 cells = assay: in vitro; format: cell-based; conditions: concentration at which 50% of the cells remain viable; MT4 cells; read-out: LC50 (the source's name)
Text: as §1

[1] = Human immunodeficiency virus 1, MT4, read-out: IC50
[2] = Human immunodeficiency virus 1, MT4
[3] = concentration at which 50% of the cells remain viable, MT4 cells, read-out: LC50 (the source's name)
[4] = concentration giving 50% inhibition of the cytopathic effect of HIV, HIV-13B in MT4 cells, read-out: IC50

Row | SMILES | inhibition at 0.0005 µM (HIV-1 protease) [%] | IC50 (HIV-13B in MT4 cells; [1]) [nM] | CC50 (in vitro) [nM] | also measured
1 | CC(C)[C@H](NC(=O)OCc1csc(N2CCCC2)n1)C(=O)N[C@@H](Cc1ccccc1)C[C@H](O)[C@H](Cc1ccccc1)NC(=O)OCc1cncs1 [Example 13, (2S,3S,5S)-5-(N-(N-((2-(1-Pyrrolidinyl)-4-thiazolyl)methoxycarbonyl)valinyl)amino)-2-(N-((5-thiazolyl)methoxycarbonyl)amino)-1,6-diphenyl-3-hydroxyhexane] | 46 | 56 to 88 | 56000 | 
2 | CC(C)c1csc(COC(=O)N[C@H](C(=O)N[C@@H](Cc2ccccc2)C[C@H](O)[C@H](Cc2ccccc2)NC(=O)OCc2cncs2)C(C)C)n1 [Example 21, (2S,3S,5S)-5-(N-(N-((4-Isopropyl-2-thiazolyl)methoxycarbonyl)valinyl)amino)-2-(N-((5-thiazolyl)methoxycarbonyl)amino)-1,6-diphenyl-3-hydroxyhexane] |  |  |  | melting point: 62 to 64 °C
3 | CC(C)c1nc(COC(=O)N[C@H](C(=O)N[C@@H](Cc2ccccc2)[C@@H](O)C[C@@H](Cc2cncs2)NC(=O)OCc2cncs2)C(C)C)cs1 [Example 65, (2S,3S,5S)-2-(N-(N-((2-Isopropyl-4-thiazolyl)methoxycarbonyl)valinyl)amino)-1-phenyl-5-(N-((5-thiazolyl)methoxycarbonyl)amino)-6-(5-thiazolyl)-3-hydroxyhexane] | 70 | 120 to 200 | > 100000 | 
4 | CC(C)c1nc(CN(NC(=O)OC(C)(C)C)C(=O)N[C@H](C(=O)N[C@@H](Cc2ccccc2)C[C@H](O)[C@H](Cc2ccccc2)NC(=O)OCc2cncs2)C(C)C)cs1 [Example 62, (2S,3S,5S)-5-(N-(N-((N-(tert-Butyloxycarbonylamino)-N-((2-isopropyl-4-thiazolyl)methyl)amino)carbonyl)valinyl)amino)-2-(N-((5-thiazolyl)methoxycarbonyl)amino)-1,6-diphenyl-3-hydroxyhexane] | 54 | 690 to 1000 | 17000 | 
5 | CC(C)[C@H](NC(=O)N(C)Cc1csc(N2CCCC2)n1)C(=O)N[C@@H](Cc1ccccc1)C[C@H](O)[C@H](Cc1ccccc1)NC(=O)OCc1cncs1 [Example 46, (2S,3S,5S)-5-(N-(N-((N-Methyl-N-((2-(1-pyrrolidinyl)-4-thiazolyl)methyl)amino)carbonyl)valinyl)amino)-2-(N-((5-thiazolyl)methoxycarbonyl)amino)-1,6-diphenyl-3-hydroxyhexane] | 46 | 100 to 170 |  | 
6 | CC(C)Cc1nc(CN(C)C(=O)N[C@H](C(=O)N[C@@H](Cc2ccccc2)C[C@H](O)[C@H](Cc2ccccc2)NC(=O)OCc2cncs2)C(C)C)cs1 [Example 59, (2S,3S,5S)-5-(N-(N-((N-Methyl-N-((2-isobutyl-4-thiazolyl)methyl)amino)carbonyl)valinyl)amino)-2-(N-((5-thiazolyl)methoxycarbonyl)amino)-1,6-diphenyl-3-hydroxyhexane] | 39 | 110 to 130 | 18000 | 
7 | CC(C)c1nc(COC(=O)N[C@H](C(=O)N[C@H](Cc2cncs2)C[C@H](O)[C@H](Cc2ccccc2)NC(=O)OCc2cncs2)C(C)C)cs1 [Example 64, (2S,3S,5S)-5-(N-(N-((2-Isopropyl-4-thiazolyl)methoxycarbonyl)valinyl)amino)-1-phenyl-2-(N-((5-thiazolyl)methoxycarbonyl)amino)-6-(5-thiazolyl)-3-hydroxyhexane] |  | 100 to 130 | > 100000 | 
8 | CC(C)[C@H](NC(=O)N(C)Cc1csc(C2CCCC2)n1)C(=O)N[C@@H](Cc1ccccc1)C[C@H](O)[C@H](Cc1ccccc1)NC(=O)OCc1cncs1 [Example 58, (2S,3S,5S)-5-(N-(N-((N-Methyl-N-((2-cyclopentyl-4-thiazolyl)methyl)amino)carbonyl)valinyl)amino)-2-(N-((5-thiazolyl)methoxycarbonyl)amino)-1,6-diphenyl-3-hydroxyhexane] | 49 | 30 to 46 | 18000 | 
9 | CC(C)c1nc(CN(N)C(=O)N[C@H](C(=O)N[C@@H](Cc2ccccc2)C[C@H](O)[C@H](Cc2ccccc2)NC(=O)OCc2cncs2)C(C)C)cs1 [Example 63, (2S,3S,5S)-5-(N-(N-((N-(Amino)-N-((2-isopropyl-4-thiazolyl)methyl)amino)carbonyl)valinyl)amino)-2-(N-((5-thiazolyl)methoxycarbonyl)amino)-1,6-diphenyl-3-hydroxyhexane Hydrochloride] | 61 |  |  | IC50 (HIV-13B in MT4 cells; [2]): 130 to 180 nM; CC50 (in vitro; [3]): 45000 nM
10 | CC(C)c1nc(CN(C)C(=O)N[C@H](C(=O)N[C@@H](Cc2ccccc2)C[C@H](O)[C@H](Cc2ccccc2)NC(=O)OCc2cnco2)C(C)C)co1 [Example 19] |  |  |  | IC50 (HIV-13B in MT4 cells; [4]): 22 to 48 nM; CC50 (MT4 cells): 87000 nM
11 | CC(C)c1nc(CN(C)C(=O)N[C@H](C(=O)N[C@@H](Cc2ccccc2)C[C@H](O)[C@H](Cc2ccccc2)NC(=O)OCc2cnc(C(C)C)s2)C(C)C)cs1 [Example 45, (2S,3S,5S)-5-(N-(N-((N-Methyl-N-((2-isopropyl-4-thiazolyl)methyl)amino)carbonyl)valinyl)amino)-2-(N-(((2-isopropyl)-5-thiazolyl)methoxycarbonyl)amino)-1,6-diphenyl-3-hydroxyhexane] | 50 | 36 to 40 |  | 
12 | CC(C)c1nc(CC(=O)N[C@H](C(=O)N[C@@H](Cc2ccccc2)C[C@H](O)[C@H](Cc2ccccc2)NC(=O)OCc2cncs2)C(C)C)cs1 [Example 50] |  |  |  | IC50 (HIV-13B in MT4 cells; [4]): 150 to 270 nM; CC50 (MT4 cells): > 100000 nM
13 | CCN(Cc1csc(C2CCCC2)n1)C(=O)N[C@@H](C)C(=O)N[C@@H](Cc1ccccc1)C[C@H](O)[C@H](Cc1ccccc1)NC(=O)OCc1cncs1 [Example 60] | 44 |  |  | IC50 (HIV-13B in MT4 cells; [2]): 340 to 510 nM; CC50 (in vitro; [3]): 17000 nM
